Experimental data as given in US4442093A, “Method for administering 24,25-dihydroxycholecalciferol to persons suffering from hypercalcemia” (Kureha Kagaku Kogyo Kabushiki Kaisha, priority 1981, dated 1984).

How the values were obtained:
calcium level in serum [1] = assay: Serum calcium in rats made hypercalcemic with parathyroid hormone (Example 3); assay type: in vivo, male Wistar rats; details: 50 µg/kg i.p., PTH-treated
Method: To 4 subgroups of male Wistar rats of 150±40 g of body weight (a subgroup consisting of 5 animals), parathyroid hormone (PTH, Sigma Bovine parathyroid TCA powder, 134 USPU/mg) dissolved in a physiological saline solution containing 4% by weight of gelatine was subcutaneously injected at a dose rate of 150 USPU/100 g body weight, the volume injected being 0.4 ml/100 g body weight to prepare the rats artificially suffering from hypercalcemia.
The rats of the second group, after one hour of the administration of the parathroid hormone, were intraperitoneally administered only with ethanol, and treated as in the first group for taking the blood specimen.

[2] = tested on: inorganic phosphate in serum; assay: Serum inorganic phosphate in 5/6-nephrectomized rats (Example 18); assay type: in vivo, male Wistar rats; details: hyperphosphatemia due to 5/6-nephrectomy
Method: Ten milligrams of 24R,25-(OH)2 -D3 was dissolved in 10 ml of isopropyl alcohol and one ml of the thus obtained solution was admixed into 1,000 ml of distilled water under agitation. The thus obtained solution has the concentration of isopropyl alcohol of 0.1% by weight and the concentration of 24R,25-(OH)2 -D3 of 1 microgram/ml and was called as the composition for oral administration A (abbreviated and referred to as Composition A hereinafter). In a similar manner as the above, another composition for oral administration of the concentration of 24R,25-(OH)2 -D3 of 0.1 microgram/ml and the concentration of isopropyl alcohol of 0.1% by weight was prepared, and referred to hereinafter as Composition B.
Thirty male Wistar rats of average body weight of 200±30 g were subjected to operation of 5/6--nephrectomy.
Ten male Wistar rats of the same average body weight were subjected to sham operation. After one month of the operation, the above-mentioned Composition A or Composition B was given to each group (one group consisting of 10 animals) of the rats 6 times a week for 9 weeks to be taken ad lib. The amount of 24R,25-(OH)2 -D3 taken by each rat for a week was calculated from the total amount of water taken by the rats of the group, the total amount of water taken by the rats being actually measured week after week.

blood sugar level = assay: Blood sugar in patients (Example 23); assay type: in vivo, human
Method: Three patients shown in Table 17 were treated by oral administration of a daily dose of 4 to 6 micrograms of 24R,25-(OH)2 -D3 in a form of the soft capsule composition obtained in Example 6 for 3 continuous weeks. After the completion of administration, the patient was fasted for a night and their blood specimen was collected at 11:00 a.m. in the next morning.
Effectiveness of reducing blood sugar level (ERBS) is calculated from the […]

calcium level in serum [3] = assay: Serum calcium in hemodialysis patient hypercalcemic due to active Vitamin D3 (Example 7); assay type: in vivo, human; details: person six; baseline
Method: person six who was subjected to hemodialysis on account of renal failure and became hypercalcemia due to the four month administration of active Vitamin D3 at a daily dose of 0.5 to 1.0 microgram was treated by the oral administration of the capsule composition similar to that prepared in Example 6 for three continuous days at a daily dose of 10 micrograms of 24R,25-(OH)2 -D3.

[4] = tested on: inorganic phosphate in serum; assay: Serum inorganic phosphate in chronic renal failure patients without hemodialysis (Example 20); assay type: in vivo, human
Method: Eight patients suffering from chronic renal failure and not being subjected to hemodialysis shown in Table 14 were treated by oral daily administration of 24R,25-(OH)2 -D3 in a form of the soft capsule composition obtained in Example 6 at a daily dose of 2 to 10 micrograms for 8 weeks. The concentration of inorganic phosphate in the serum of each patient before the above-mentioned administration and that after completion of the above-mentioned administration for 8 weeks were determined by the Molybdenum Blue method, the results being shown in Table 14.

[5] = tested on: content of magnesium in serum; assay: Serum magnesium in rats given puromycin aminonucleoside (Example 15); assay type: in vivo, male Wistar rats; details: AN 1.5 mg/100 g
Method: Forty male Wistar rats in 9th week after birth were divided into four groups, and the rats of each group were treated as follows.
To the rats of the first group were administered subcutaneously physiological saline solution once a day for continuous 12 days at a daily dose of 0.1 ml/100 g body weight with the simultaneous oral administration of triglyceride ester of fatty acid used in Example 1 (abbreviated as MCT) containing 0.1% by weight of ethanol once a day for continuous 12 days at a daily dose of 0.2 ml/100 g body weight followed by oral administration of only MCT once a day for another 3 continuous days at the same daily dose rate.
To the rats of the second group were subcutaneously administered a solution of 1.5 mg of puromycin aminonucleoside (abbreviated hereinafter as AN) in 0.1 ml of physiological saline solution once a day for continuous 12 days at a daily dose rate of 1.5 mg of AN/100 g body weight. The saline solution had been sterilized with a Milipore filter before administration. To the rats were further administered orally MCT in the same manner as in those of the first group. […]
On 15th day after the commencement of the above-mentioned administration, blood specimen was collected from all the rats, and after preparing each specimen of serum from each blood specimen, the content of magnesium in each serum specimen was determined by atomic absorption method. […]

[6] = average of 3 patients, 4 to 6 µg/day oral, 3 weeks
[7] = person fourteen, 4 µg/day oral, 3 weeks
[8] = person nineteen, 6 µg/day oral, 3 weeks
[9] = person seven, 6 µg/day oral, 3 weeks

## C=C1CC[C@H](O)C/C1=C/C=C1\CCC[C@]2(C)[C@@H]([C@H](C)CC[C@@H](O)C(C)(C)O)CC[C@@H]12 [24R,25-(OH)2 -D3]
Calcium level in serum [1]; after 2 hours
  Calcium level in serum: 12.5 ± 0.5 mg/dL
Calcium level in serum [1]; after 5 hours
  Calcium level in serum: 10.5 ± 0.5 mg/dL
[2]
  inorganic phosphate level in serum: significant reduction of the inorganic phosphate level
Blood sugar level; [6]
  Blood sugar level after administration, average: 129.7 ± 9.1 mg/dL
  Effectiveness in reducing blood sugar level, average: 86.2%
Blood sugar level; average of 3 patients, baseline
  Blood sugar level before administration, average: 182 ± 13.5 mg/dL
Blood sugar level; [7]
  Blood sugar level after administration: 120 mg/dL
  Effectiveness in reducing blood sugar level: 100%
Blood sugar level; person fourteen, baseline
  Blood sugar level before administration: 168 mg/dL
Blood sugar level; [8]
  Blood sugar level after administration: 138 mg/dL
  Effectiveness in reducing blood sugar level: 76%
Blood sugar level; person nineteen, baseline
  Blood sugar level before administration: 195 mg/dL
Blood sugar level; [9]
  Blood sugar level after administration: 131 mg/dL
  Effectiveness in reducing blood sugar level: 82.5%
Blood sugar level; person seven, baseline
  Blood sugar level before administration: 183 mg/dL
Calcium level in serum [3]
  calcium level in serum before the administration: 12.8 mg/dL
[4]; average of 8 patients, 2 to 10 µg/day, 8 weeks
  Concentration of inorganic phosphate after administration, average: 4.60 ± 0.66 mg/dL
[4]; average of 8 patients, baseline
  Concentration of inorganic phosphate before administration, average: 6.24 ± 0.53 mg/dL
[4]; patient 1 (person six), 10 µg/day, 8 weeks
  Concentration of inorganic phosphate after administration: 5.5 mg/dL
[4]; patient 1 (person six), baseline
  Concentration of inorganic phosphate before administration: 7.2 mg/dL
[4]; patient 2 (person sixteen), 6 µg/day, 8 weeks
  Concentration of inorganic phosphate after administration: 4.7 mg/dL
[4]; patient 2 (person sixteen), baseline
  Concentration of inorganic phosphate before administration: 6.3 mg/dL
[4]; patient 3 (person four), 4 µg/day, 8 weeks
  Concentration of inorganic phosphate after administration: 4.7 mg/dL
[4]; patient 3 (person four), baseline
  Concentration of inorganic phosphate before administration: 5.9 mg/dL
[4]; patient 4 (person twelve), 8 µg/day, 8 weeks
  Concentration of inorganic phosphate after administration: 4.9 mg/dL
[4]; patient 4 (person twelve), baseline
  Concentration of inorganic phosphate before administration: 6.5 mg/dL
[4]; patient 5 (person twenty), 6 µg/day, 8 weeks
  Concentration of inorganic phosphate after administration: 5.3 mg/dL
[4]; patient 5 (person twenty), baseline
  Concentration of inorganic phosphate before administration: 6.6 mg/dL
[4]; patient 6 (person three), 4 µg/day, 8 weeks
  Concentration of inorganic phosphate after administration: 3.8 mg/dL
[4]; patient 6 (person three), baseline
  Concentration of inorganic phosphate before administration: 5.8 mg/dL
[4]; patient 7 (person one), 2 µg/day, 8 weeks
  Concentration of inorganic phosphate after administration: 3.7 mg/dL
[4]; patient 7 (person one), baseline
  Concentration of inorganic phosphate before administration: 5.5 mg/dL
[4]; patient 8 (person ten), 6 µg/day, 8 weeks
  Concentration of inorganic phosphate after administration: 4.2 mg/dL
[4]; patient 8 (person ten), baseline
  Concentration of inorganic phosphate before administration: 6.1 mg/dL
[4]; patient of chronic renal failure, normal level 2.5 to 5.5 mg/dl
  inorganic phosphate level in serum: significantly reduced to the normal level
[5]; 3rd group, dose 1 per 100 g b.w. oral 12 days
  Mg in serum: 4.5 ± 0.32 mg/dL
[5]; 4th group, dose 10 per 100 g b.w. oral 12 days
  Mg in serum: 4.3 ± 0.30 mg/dL
